From EP0409382A1, “Glutamic acid derivatives” (THE WELLCOME FOUNDATION LIMITED, priority 1989, dated 1991)

Test system: MCF-7 breast adenocarcinoma
Test: Cell culture cytotoxicity assay (MTT dye reduction), inhibition of cell growth
Format: cell-based, Human
Details: for IC50: MCF7, Anti-tumour Activity Human Breast Adenocarcinoma Cells, MCF-7, 72 hours incubation, medium with 10 nM calcium leucovorin as folate source, read-out: IC₅₀; for inhibiting the growth of MCF-7 cells: 72 hours, MTT dye reduction, result in words
Method: Cells and Medium: MCF-7 breast adenocarcinoma, obtained from the American Type Culture Collection (ATCC) are grown in RPMI 1640 medium supplemented with 10 nM calcium leucovorin instead of folic acid as the folate source; 10% dialyzed fetal calf serum, penicillin, streptomycin and sodium pyruvate (110 µg/ml).
Cytotoxicity Assay: Cells are seeded into 96 well plates using a Perkin Elmer Pro/pette. MCF-7 cells are seeded at 15,000 cells per well in 150 µl of medium and each concentration was assayed in triplicate. Cultures were incubated for 72 hours in a 37^o humidified incubator at5% CO₂. Inhibition of cell growth was measured using the MTT dye reduction assay.
MTT Dye Reduction Assay: Cell dilutions for a standard curve were prepared from a 72 hour log-phase culture. Serial dilutions were seeded in triplicate in 96 well plates and incubated at 37 for 1 hour. MTT (3-(4,5-dimethylthiazol-2-yl)-2,5-diphenyltetrazolium bromide) was dissolved in phosphate buffered saline at 5 mg/ml and sonicated for 30 seconds. Using the Perkin Elmer Pro/pipette, […] of medium was removed and 100 µl of MTT added to the wells of the standard curve and test plates. Suspension cultures were spun for 5 minutes at 1000 rpm before removing medium from the wells. Plates were incubated for 1 hour at 37^o on a platform shaker. Following this incubation, 100 µl of medium was removed from the wells and 100 µl of dimethylsulphoxide added to each well. The plates were sonicated for approximately 10 seconds to solubilize the precipitated formazan dye. The absorbance of each well was measured using a Titertek Multiskan MC microtiter plate reader at 570 nm with a reference wavelength of 750 nm.

| Structure (SMILES) | IC50 [nM] | inhibiting the growth of MCF-7 cells |
| --- | --- | --- |
| Nc1nc(N)c(CCCSc2ccc(C(=O)N[C@@H](CCC(=O)O)C(=O)O)cc2)c(=O)[nH]1 [Example 1F, N-[4-[[3-(2,4-Diamino-1,6-dihydro-6-oxo-5-pyrimidinyl)propyl]thio]benzoyl]-L-glutamic acid] | 23 | active |
| Nc1nc(N)c(CCCOc2ccc(C(=O)N[C@@H](CCC(=O)O)C(=O)O)cc2)c(=O)[nH]1 [Example 2E, N-[4-[3-(2,4-Diamino-1,6-dihydro-6-oxo-5-pyrimidinyl)propoxy]benzoyl]-L-glutamic acid] | 85 | active |
